We go through eight molecules from ChEMBL document CHEMBL1201862, “PubChem BioAssay data set” (2004).

The term GI50 denotes the concentration that inhibits growth by half.

Common to all, as to assay: DTP human tumour cell line panel, 48 h
The subject of assay [1] is COLO 205.
For assay [2], the system named is SF-539.
The subject of assay [3] is UACC-62.
For assay [4], the system named is MDA-N.
Assay [5] deals with SK-MEL-5.
Assay [6] deals with 786-0.
For assay [7], the system named is HL-60.
The subject of assay [8] is HT-29.
For assay [9], the system named is SW-620.
Assay [10] concerns A549.
Assay [11] deals with MDA-MB-231.
For assay [12], the system named is SNB-75.
The test system of assay [13] is ACHN.
Assay [14] deals with M14.
The test system of assay [15] is TK-10.
Assay [16] relates to NCI-H226.
For assay [17], the system named is Malme-3M.
Assay [18] has as its system MOLT-4.
The subject of assay [19] is Hs-578T.
Assay [20] has as its system NCI/ADR-RES.

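Method: 48-hour compound exposure of cells in 96-well plates, five concentrations, linear interpolation of endpoints. GI50: concentration for 50% inhibition of growth.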 The source made the active and inactive calls. Rule as the data show it: active = GI50 up to about 1.1 µM and inactive = higher.

Turning to `Cc1c(CCCl)c(Cl)n2c(nc3ccccc32)c1C#N`, the concentration for 50% growth inhibition (GI50) is 0.991 µM (active) in assay [1]; 0.681 µM (active) in [2]; 1.02 µM (active) in [3]; 0.826 µM (active) in assay [4]; 0.891 µM (active) in [5]; 0.463 µM (active) in [6]. In addition, the GI50 is 0.107 µM (active) in assay [7]; 1.42 µM (inactive) in assay [8]; 0.161 µM (active) in [9]; 1.4 µM (inactive) in assay [10]; 1.32 µM (inactive) in assay [11]; 3.38 µM (inactive) in assay [12]. Further, the GI50 was 0.836 µM (active) in assay [13]; 1.14 µM (inactive) in assay [14]; 1.61 µM (inactive) in assay [15]; 1.38 µM (inactive) in assay [16]; 1.26 µM (inactive) in assay [17]; 0.172 µM (active) in assay [18].
`Cc1ccc2c(c1)-c1c(C#N)c(N)nc(-c3ccccc3)c1CCS2(=O)=O`: the GI50 in assay [1] is 6.03 µM (inactive); in [2], 6.35 µM (inactive); in [3], 3.84 µM (inactive); in [19], 5.98 µM (inactive); in [5], 3.03 µM (inactive); in assay [6], 6.38 µM (inactive). In addition, the GI50 in [20] is 5.26 µM (inactive); in [7] it was 0.204 µM (active); in assay [8] it was 3.78 µM (inactive); in [9] it was 5.6 µM (inactive); in [10], 11 µM (inactive); in assay [11], 17.5 µM (inactive). For the same molecule, the GI50 in [12] was 3.72 µM (inactive); in assay [13], 8.53 µM (inactive); in [14], 4.54 µM (inactive); in assay [15], > 100 µM (inactive); in assay [16] it was 5.36 µM (inactive); in assay [17], 2.45 µM (inactive). Also, in assay [18], the GI50 is 7.53 µM (inactive).
As to `COc1cccc(Nc2nc(-c3cccs3)nc3cc(OC)c(OC)cc23)c1`, the GI50 in assay [1] is 23.2 µM (inactive); in [2], 20.9 µM (inactive); in assay [3] it was 19.1 µM (inactive); in assay [19], 27.4 µM (inactive); in assay [5] it was 25.4 µM (inactive); in assay [6] it was 21.9 µM (inactive). Besides, the GI50 in assay [20] was 24.3 µM (inactive); in assay [7], 42.1 µM (inactive); in assay [8] it was 24.8 µM (inactive); in [9], 29 µM (inactive); in assay [10], 29 µM (inactive); in [11] it was 23 µM (inactive). For the same molecule, the GI50 in assay [12] is 32.8 µM (inactive); in assay [13], 21.6 µM (inactive); in assay [14], 35.2 µM (inactive); in assay [15] it was 33.4 µM (inactive); in assay [16] it was 37.6 µM (inactive); in assay [17], 68.9 µM (inactive). In addition, the GI50 in [18] was 53.6 µM (inactive).
Turning to `Cc1cc2c(cc1Cl)SC(NNCCO)=NS2(=O)=O`, the GI50 in assay [1] was > 100 µM (inactive); in assay [2] it was > 100 µM (inactive); in assay [3], 97.7 µM (inactive); in assay [19], > 100 µM (inactive); in [5], 73.1 µM (inactive); in assay [6], > 100 µM (inactive). For the same molecule, the GI50 in [20], in [7], in [8], in [9], in assay [11] and in assay [12] was > 100 µM (inactive) throughout. For the same molecule, the GI50 in assay [13], in assay [14], in assay [15], in assay [16] and in assay [18] was > 100 µM (inactive) each time.
Turning to `CC(=O)CCC(=O)CC(O)(C(F)(F)F)C(F)(F)F`, the GI50 in assay [1] is 17.9 µM (inactive); in [2], 16.6 µM (inactive); in [3], 16.8 µM (inactive); in [19] it was 14.6 µM (inactive); in [5], 18.1 µM (inactive); in [6], 16.2 µM (inactive). The GI50 in [20] was 25.3 µM (inactive); in [7], 18.5 µM (inactive); in assay [8], 17.8 µM (inactive); in assay [9], 21.6 µM (inactive); in assay [10], 20.6 µM (inactive); in assay [11], 19.2 µM (inactive). Moreover, the GI50 in [12] is 27.5 µM (inactive); in assay [13] it was 24.8 µM (inactive); in assay [14], 19.9 µM (inactive); in [15], 22.6 µM (inactive); in [16] it was 11.6 µM (inactive); in assay [17], 16.7 µM (inactive). For the same molecule, the GI50 in assay [18] was 17.9 µM (inactive).
With `COc1cc(/C=C/C(=O)c2ccc(NS(=O)(=O)c3cc([N+](=O)[O-])ccc3C)cc2)cc(OC)c1OC`, the GI50 in [1] was 4.26 µM (inactive); in assay [2], 2.18 µM (inactive); in [4] it was 3.62 µM (inactive); in [5], 4.18 µM (inactive); in assay [6] it was 2.74 µM (inactive); in [20], 8.41 µM (inactive). Moreover, the GI50 in [7] was 3.37 µM (inactive); in [8], 4.38 µM (inactive); in assay [9], 4.49 µM (inactive); in assay [10], 3.81 µM (inactive); in [11] it was 2.59 µM (inactive); in assay [12], 4.39 µM (inactive). The GI50 in assay [13] is 4.38 µM (inactive); in [14], 2.99 µM (inactive); in [15], 3.96 µM (inactive); in [16], 2.97 µM (inactive); in [18], 1.85 µM (inactive).
`Cc1cc(C)n2c(nc3ccccc32)c1C#N`: the GI50 is > 100 µM (inactive) in [1]; > 100 µM (inactive) in [2]; > 100 µM (inactive) in [3]; > 100 µM (inactive) in assay [4]; 55.7 µM (inactive) in assay [5]; > 100 µM (inactive) in assay [6]. In addition, the GI50 in assay [20] is > 100 µM (inactive); in [7] it was > 100 µM (inactive); in assay [8], > 100 µM (inactive); in [9], > 100 µM (inactive); in [10], > 100 µM (inactive); in assay [11], 69.2 µM (inactive). Moreover, the GI50 in [13] was > 100 µM (inactive); in [14], > 100 µM (inactive); in [15], > 100 µM (inactive); in assay [16], > 100 µM (inactive); in assay [17], > 100 µM (inactive); in [18], 93.8 µM (inactive).
For the molecule `CCOC(=O)C1=C(C)N(Cc2ccccc2)C2(O)C(OC)CC(=O)C3C(=O)N(c4ccccc4)C(=O)C132` (stereo not given), the GI50 was 7.21 µM (inactive) in [1]; 15 µM (inactive) in assay [2]; 5.66 µM (inactive) in assay [3]; 83.4 µM (inactive) in assay [19]; 10.3 µM (inactive) in [5]; 8.07 µM (inactive) in assay [6]. Also, the GI50 is 13.8 µM (inactive) in [20]; 3.93 µM (inactive) in assay [7]; 4.9 µM (inactive) in [8]; 4.93 µM (inactive) in assay [9]; 7.74 µM (inactive) in [10]; 13.5 µM (inactive) in [11]. In addition, the GI50 was 10.4 µM (inactive) in [13]; 19.9 µM (inactive) in assay [14]; 22.4 µM (inactive) in assay [15]; 15.1 µM (inactive) in assay [16]; 14.5 µM (inactive) in assay [17]; 7.45 µM (inactive) in assay [18].
